Key:
DHODH = DHODH (Homo sapiens (Human), UniProt Q02127); assay: DHODH activity assay (coupled enzyme assay, DCIP reduction, absorbance at 610 nm); assay type: biochemical; settings: for inhibition at 10 µM: read-out: inh @ 10 uM hDHODH (%)
Description: The DHODH activity assay is a coupled enzyme assay in which oxidation of DHO and subsequent reduction of ubiquinone are stoichiometrically equivalent to the reduction of DCIP ([…]). The reduction of DCIP is accompanied by a loss of absorbance at 610 nm.
Buffer Preparation: 50 mM tris HCl, 150 mM KCl, and pH 8.0, 0.8% triton.
5 μL of Dimethyl sulfoxide or a compound of formula I in DMSO solution was added to the wells of a 96 well plate. Compounds of formula I were measured at 10 μM.
Protein along with buffer was added, so that the total volume including the DMSO was 87 μL. Compound and protein were incubated for half an hour at room temperature after mixing. 5 μL of 20 mM solution of L-Dihydroorotic acid, 5 μL of 2 mM solution of Decylubiquinone and 3 μL of 2 mM solution of 2,6-Dichloroindophenol sodium salt hydrate were added to the above solution (total assay volume 100 μL). The mixture was stirred for 2 min and absorbance was recorded at every 10 min at 610 nanometers.
Percent Inhibition is Calculated as Follows
Positive control contains DMSO, buffer, enzyme and substrates
No Enzyme reaction contains DMSO, buffer and substrates
IC50 determination: • A 2 mM DMSO stock of the compound of formula I to be examined was prepared. ⅓rd dilutions were made as follows:
5 μL of each stock of compound of formula I (solution indicated in column 4 of table) was used for each 100 μL assay. Therefore, 5 μL of the 2 mM stock provided 100 μL of 100 μM solution of compound of formula I, when made up with buffer, protein and substrate. See also: Ulrich et al. (2001) Eur. J. Biochem. 268, 1861-1868.

Jurkat cells = assay: Measurement of cell proliferation (Jurkat cell), XTT assay; assay type: cell-based; settings: for inhibition at 1 µM: compound at 1 uM, read-out: % inh Jurkat_cells @ 1 uM (%); for EC50: XTT cell viability
Description: See also Roehm, N et al [1991] An improved colorimetric assay for cell proliferation and viability utilizing the tetrazolium salt XTT. J. Immunol. Methods 142:257-265.
Culture Jurkat cells in T-25 flasks at a density of 0.2×10^6/ml 2-3 days before the day of experiment set up.
Centrifuge Jurkat T-cell suspension at 1200 rpm for 10 minutes and resuspend cells again in fresh RPMI medium with 10% FBS.
Count the cells and dilute suspension to a density of 2×10^6 cells/ml. Seed 50 μL of this suspension in each well of a 96 well plate (100,000 cells per well). Keep the edges of the plate empty to avoid evaporation.
Serially dilute DMSO stocks of compounds to get different concentrations for an EC50 curve. 50 μL of compound diluted in media (2× concentration required in well) is added to each well. DMSO concentration should be kept constant at 0.25-0.5% for all wells.
Typically, for all compounds with IC50<1 μM, compound concentration can start at 10 μM followed by half log dilutions for a total of 8-10 concentrations. Each concentration has to be tested in triplicate.
Include controls such as cells without compound (with same DMSO concentration as compound wells), and media control
Incubate the 96 well plate in a CO2 incubator at 37° C. for 72 hrs before determining cell viability using XTT assay
XTT assay: to each well, add 50 μL of 1 mg/ml XTT solution with 20 μl of PMS/mL. Read the plates after 2 hours at 465 nm using the spectrophotometer. XTT reading for media without cells is used as background reading.
Calculate % cell viability assuming that the cells without compound are 100% viable.
Plot % cell viability as a function of concentration and determine EC50 by using software such as Graph Pad Prism to fit the curve.

DHODH, sequence (Q02127 whole entry): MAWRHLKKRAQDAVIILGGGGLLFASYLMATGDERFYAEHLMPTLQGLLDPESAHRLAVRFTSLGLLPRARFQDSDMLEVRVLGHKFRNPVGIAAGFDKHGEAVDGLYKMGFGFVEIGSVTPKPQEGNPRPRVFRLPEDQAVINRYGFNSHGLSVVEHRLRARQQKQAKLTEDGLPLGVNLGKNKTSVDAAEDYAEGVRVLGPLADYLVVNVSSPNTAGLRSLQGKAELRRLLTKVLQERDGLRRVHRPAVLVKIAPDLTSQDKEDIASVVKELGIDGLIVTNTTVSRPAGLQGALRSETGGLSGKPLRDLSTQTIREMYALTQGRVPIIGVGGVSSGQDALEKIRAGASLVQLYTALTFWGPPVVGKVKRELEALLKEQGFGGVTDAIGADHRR

SMILES | IC50 (DHODH) [nM] | inhibition at 10 µM (DHODH; compound at 10 uM) [%] | inhibition at 1 µM (Jurkat cells; Homo sapiens, Jurkat) [%] | EC50 (Jurkat cells; Homo sapiens, Jurkat, 72 h) [nM] | inh @ 10 uM hDHODH (%) (DHODH; compound at 10 uM) | EC50 (Jurkat cells; 72 hrs) [nM]
Cc1cc(C(=O)O)c2nc(-c3c(F)c(F)c(-c4ccc(OCc5ccccc5)cc4)c(F)c3F)[nH]c2c1 [I127] | 48 | 101 | 96 | – | – | –
Cc1cc(C(=O)O)c2nc(-c3ccc(-c4ccc(Oc5ccccc5C=O)cc4)cc3)[nH]c2c1 [I142] | 1050 | 84.7 | 54.5 | – | – | –
Cc1cc(C(=O)O)c2nc(-c3c(F)c(F)c(-c4cc(F)cc(F)c4)c(F)c3F)[nH]c2c1 [I146] | 21 | 96.4 | 89.9 | 13 | – | –
Cc1cc(C(=O)O)c2nc(-c3c(F)c(F)c(-n4c(C)ccc4C)c(F)c3F)[nH]c2c1 [I82, 2-[4-(2,5-Dimethyl-pyrrol-1-yl)-2,3,5,6-tetrafluoro-phenyl]-6-methyl-1H-benzoimidazole-4-carboxylic acid] | 5.6 | 111 | 106 | – | – | –
O=C(O)c1cccc2[nH]c(-c3c(F)c(F)c(-c4ccc(F)cc4)c(F)c3F)nc12 [I133] | 808 | 101 | 54.7 | – | – | –
Cc1cc(C(=O)O)c2[nH]c(-c3ccc(-c4ccc(CN(C)C)cc4)cc3)nc2c1 [I161] | – | 43.3 | 9.7 | – | – | –
O=C(O)c1cccc2[nH]c(-c3c(F)c(F)c(-c4cccc(OC(F)(F)F)c4)c(F)c3F)nc12 [I148] | 218 | 103 | 88.6 | – | – | –
Cc1cc(C(=O)O)c2nc(-c3ccc(-c4ccc(C(=O)NC5CCNCC5)cc4)cc3)[nH]c2c1 [I92] | 6640 | 59.7 | 16.3 | – | – | –
Cc1cc(C(=O)O)c2nc(-c3c(F)c(F)c(-c4cccnc4)c(F)c3F)[nH]c2c1 [I141] | 32 | 92.5 | 86.9 | 2600 | – | –
O=C(O)c1cccc2cc(-c3ccc(-c4ccccc4)cc3)[nH]c12 [I61] | 595 | 94.8 | 67.2 | 202 | – | –
Cc1cc(C(=O)O)c2nc(-c3c(F)c(F)c(-c4cccc(NC(=O)C5CCCN5)c4)c(F)c3F)[nH]c2c1 (stereo not shown) [I86] | 815 | 93.1 | 70.8 | – | – | –
O=C(O)c1cc(F)cc2[nH]c(-c3c(F)cc(-c4ccccc4)cc3F)nc12 [I68] | 276 | 97.8 | 78.4 | – | – | –
COC(=O)c1cc(C)cc2[nH]c(-c3c(F)c(F)c(-c4ccccc4)c(F)c3F)nc12 [I176] | – | 45 | 7 | – | – | –
COc1cccc(-c2ccc(-c3nc4c(C(=O)O)cccc4[nH]3)c(F)c2)c1 [I5] | 368 | – | – | – | 94.3 | 356
O=C(O)c1cc(Cl)cc2[nH]c(-c3ccc(-c4ccccc4F)cc3)nc12 [I45] | 949 | 92.2 | 49.5 | – | – | –
Cc1cc(C(=O)O)c2[nH]c(-c3c(F)c(F)c(-c4cccc(OCc5ccccc5)c4)c(F)c3F)nc2c1 [I105] | 13.6 | 95.8 | 91.9 | – | – | –
Cn1cc(-c2ccc(-c3nc4cccc(C(=O)O)c4[nH]3)cc2)cn1 [I186] | – | 31.9 | 13.5 | – | – | –
O=C(O)c1cccc2[nH]c(-c3ccc(Oc4ccccn4)cc3)nc12 [I70, 2-[4-(Pyridin-2-yloxy)-phenyl]-1H-benzoimidazole-4-carboxylic acid] | – | 58.6 | 14.6 | – | – | –
Cc1cc(C(=O)O)c2nc(-c3ccc(-c4nc5ccccc5s4)cc3)[nH]c2c1 [I47] | – | 40.3 | 17.3 | – | – | –
Cc1cc(C(=O)O)c2nc(-c3c(F)c(F)c(-c4ccc(F)cc4)c(F)c3F)[nH]c2c1 [I134] | 118 | 88.1 | 77.9 | – | – | –

— US9006454B2, “Dihydroorotate dehydrogenase inhibitors” (Merck Serono S.A., priority 2009, dated 2015)
